Patent publication EP4737453A1, “NOVEL SELENOPHENE DERIVATIVES” (Aigen Sciences Inc., priority 2023, dated 2025)

Tests used:
Format in all cases: cell-based
[1] = test system: NCI-H358 cell line; experiment: Combination effect with targeted anticancer agent, cell viability (CellTiter-Glo, combination index), H358; details: H358 cells, 7 days, Example 1 compound 0.0001 to 0.1 µM, Fig. 1
Protocol: Test for evaluating the combination effect of targeted anticancer agent- Cell Viability
In this experimental example, we examined whether the compound according to the present invention has a synergistic effect on cancer cell death when used in combination with a target anticancer agent related to another RAS signal transduction pathway.
NCI-H358 cell line (ATCC catalog no. CRL-5807, USA) or EGFR exon 19 deletion cancer cell line PC-9 (Riken, Japan catalog no. RCB4455) were seeded in a well plate (500 cells per well for H358 and 50 cells per well for PC-9) in RPMI1640 (Gibco, USA catalog no. 22400-089) medium containing 10% fetal bovine serum (Excel Bio, USA catalog no. FSP500) and cultured for one day at 37°C under 5% CO2 conditions. […] Cell survival analysis was performed by luminescence analysis using the Promega CellTiter-Glo Luminescent Cell Viability Assay Kit (Promega, catalog number G7573), and luminescence was measured using a PerkinElmer 2014 EnVision plate reader. The inhibition rate was calculated from the measured relative luminescence value in the same manner as in Experimental Example 3, and the combination index (CI) between the compound of the present invention and the target anticancer agent was calculated using the following equation. […]

[2] = test system: NCI-H358; experiment: Cell Growth Inhibition Assay (3D CellTiter-Glo); details: Homo sapiens, NCI-H358, 288 h, read-out: Cell growth IC50
Protocol: Cell Growth Inhibition Assay
In this experimental example, the cell growth inhibitory effect of compounds according to the present invention and positive control compounds in tumor cell lines was examined.
The cell culture medium containing the compound was replaced by 100 µL every 3 days. Luminescence analysis was performed using the 3D CellTiter-Glo Luminescent Cell Viability Assay Kit (Promega, USA) (Promega catalog number G9681). […] The percent cell growth inhibition rate was calculated from the measured relative luminescence unit (RLU) as follows. Inhibition rate = 1−((RLU compound−RLU blank)/(RLU control−RLU blank)) X 100 [formula]

[3] = test system: MIA-PaCa-2; experiment: Reactive oxygen species (ROS) production assay; details: MIA-PaCa-2 cells, 10 µM, 24 hours; Figure 3
Protocol: Reactive oxygen species (ROS) production assay
In this experimental example, it was examined that the compound according to the present invention has the effect of increasing reactive oxygen in tumor cells.
MIA-PaCa-2 (Korea Cell Line Bank KCLB No. 21420), a cancer cell line harboring KRAS G12C mutation, was cultured in a cell culture medium containing RPMI1640 (Gibco, USA, catalog no. 11875-119), 10% fetal bovine serum (HyClone, USA, catalog no. SH30919.03), and 1 × diluted HyClone Antibiotic Antimycotic solution (HyClone, USA, catalog no. SV30079.01). 3 × 10^5 cells were seeded per well in a 6-well plate and cultured for 1 day at 37°C under 5% CO2 conditions. […] The cells were then collected in a microtube and analyzed for fluorescence using a BD LSRFortessa™ X-20 Cell Analyzer (BD Biosciences, USA) (excitation wavelength: 488 nm, emission wavelength: 535 nm). The fluorescence intensity due to the increase in reactive oxygen species was measured for 10,000 cells. Among the cells treated with 500 µM hydrogen peroxide, which was the positive control, the section in which the fluorescence intensity increased compared to the cells treated with the blank sample was found, and the average fluorescence intensity of the cells within this section was calculated. […]

CNCc1ccccc1-c1c[se]c([C@@H](C)Nc2nc(C)nc3cc(OC)c(OC)cc23)c1 [Example 1, (R)-6,7-dimethoxyl-2-methyl-N-(1-(4-(2-((methylamino)methyl)phenyl)selenophen-2-yl)ethyl)quinazolin-4-amine]
synergistic effect inhibiting cell growth in combination with sotorasib ([1]; sotorasib 0.001 to 1 µM): strong synergistic effect
synergistic effect inhibiting cell growth in combination with trametinib ([1]; trametinib 0.001 to 0.1 µM): strong synergistic effect
IC50 [2]: 20.7 nM
ROS production compared to the blank sample [3]: significantly increased ROS production
